Laboratory results published in patent publication US8486979B2, “1,2,4 oxadiazole compounds and methods of use thereof” (AbbVie Inc., priority 2006, dated 2013).
Counter-ions that a name gives are not always drawn.

Tests used:
[1] = biological target: T1, human α4β2 nicotinic acetylcholine receptor (Homo sapiens, UniProt P17787+P43681); assay: Calcium flux (FLIPR) assay, HEK-293 cells expressing human α4β2 nAChR; assay type: cell-based; details: for Activity (allosteric effects—potentiation of fluorescence responses): α4β2 positive allosteric modulation, calcium fluorescence (FLIPR); for potency (EC50 values) for activation of α4β2 nAChRs in the presence vs absence of PAM: presence and absence of α4β2 PAM Compound 1, FIG. 5
T1 construct: expressed in transfected cells
T1 sequence (P43681 29-627 limits assumed): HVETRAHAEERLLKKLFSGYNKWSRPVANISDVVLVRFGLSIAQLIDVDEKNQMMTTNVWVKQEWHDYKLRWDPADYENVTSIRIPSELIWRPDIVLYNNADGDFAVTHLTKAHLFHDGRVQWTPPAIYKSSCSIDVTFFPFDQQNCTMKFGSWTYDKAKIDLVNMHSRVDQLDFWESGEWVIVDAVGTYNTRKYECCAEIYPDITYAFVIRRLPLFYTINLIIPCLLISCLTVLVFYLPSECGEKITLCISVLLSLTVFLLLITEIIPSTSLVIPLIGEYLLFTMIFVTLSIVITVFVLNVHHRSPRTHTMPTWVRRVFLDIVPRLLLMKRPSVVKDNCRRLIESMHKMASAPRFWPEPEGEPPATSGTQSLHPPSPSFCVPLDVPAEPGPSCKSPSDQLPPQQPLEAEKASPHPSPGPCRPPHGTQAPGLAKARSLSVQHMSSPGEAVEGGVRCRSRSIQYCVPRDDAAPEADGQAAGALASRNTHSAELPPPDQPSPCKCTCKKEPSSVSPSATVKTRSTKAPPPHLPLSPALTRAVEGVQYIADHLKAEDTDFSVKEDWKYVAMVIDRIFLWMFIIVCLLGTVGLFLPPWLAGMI
T1 sequence (P17787 26-502): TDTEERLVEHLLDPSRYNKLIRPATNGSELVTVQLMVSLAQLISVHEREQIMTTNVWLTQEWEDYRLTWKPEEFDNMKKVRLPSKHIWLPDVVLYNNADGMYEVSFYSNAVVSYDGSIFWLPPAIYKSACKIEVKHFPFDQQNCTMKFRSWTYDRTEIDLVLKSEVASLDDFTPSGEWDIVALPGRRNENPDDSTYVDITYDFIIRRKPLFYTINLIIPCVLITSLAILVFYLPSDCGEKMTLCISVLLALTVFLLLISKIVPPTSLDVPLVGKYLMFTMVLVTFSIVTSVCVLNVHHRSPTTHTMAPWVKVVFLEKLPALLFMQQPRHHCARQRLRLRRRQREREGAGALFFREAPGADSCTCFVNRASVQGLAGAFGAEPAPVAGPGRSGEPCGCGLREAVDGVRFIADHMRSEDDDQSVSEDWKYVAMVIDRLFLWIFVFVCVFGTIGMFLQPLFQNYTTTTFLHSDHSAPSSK
Experimental: Experimental Procedure: Human embryonic kidney (HEK) 293 cells stably expressing human α4β2 or α3β4 combinations are grown to confluency in 162 cm^2 tissue culture flasks in DMEM media supplemented with 10% FBS and 25 μg/ml zeocin and 200 μg/ml hygromycin B. IMR-32 neuroblastoma cells (ATCC) are grown to confluency in 162 cm^2 tissue culture flasks in minimum essential media supplemented with 10% FBS and 1 mM sodium pyruvate, 1% non-essential amino acids and 1% antibiotic-antimycotic. The cells are then dissociated using cell dissociation buffer and 100-150 μl per well of 3.5×10^5 cells/ml cell suspension (˜50,000-100,000 cells/well) was plated into 96-well black plates (poly-D-lysine precoated) with clear bottom and maintained for 24-48 hours in a tissue culture incubator at 37° C. under an atmosphere of 5% CO2: 95% air. Other clonal cell lines or primary cell cultures that express endogenous α4* nicotinic receptors may also be used in this assay. Calcium flux was measured using calcium-3 assay kit (Molecular Devices, Sunnyvale, Calif.) or fluo-4 (Invitrogen). A stock solution of the dye was prepared by dissolving each vial supplied by the vendor in Hank's balanced salt solution buffer (HBSS) or 150 mM NMDG, 20 mM CaCl2 containing 10 mM HEPES, The stock solution was diluted 1:20 using the same buffer before use. The growth media was removed from the cells. The cells were loaded with 100 μl of the dye per well and incubated at room temperature for up to one hour for HEK 293 clonal stable cell lines or 30 minutes-45 minutes at 37° C. for IMR-32 cells Fluorescence measurements were read simultaneously from all the wells by a Fluorometic Imaging Plate Reader (FLIPR) at an excitation wavelength of 480 nm and an emission wavelength of 520 nm. Baseline fluorescence was measured for the first 6 seconds at which 3× concentrations of modulator/test compounds were added to the cell plate at 50 μl and incubated for five minutes. The fluorescence intensity was captured every second for the first 1 minute followed by every 5 seconds for an additional 4 minutes. This procedure was followed by 50 μl of 4× concentration of agonist and readings were taken for a period of 3-5 minutes as described above. Data was normalized to maximal responses and plotted as a function of concentration. The concentration dependence of changes fluorescence responses was fitted by nonlinear regression analysis (GraphPad Prism, San Diego, Calif.) to obtain EC50 values.
The positive allosteric modulator effects on α4β2 nAChRs exemplified by 3-(3-pyridin-3-yl-1,2,4-oxadiazol-5-yl)benzonitrile (Compound 1) and 3,5-di(pyridin-3-yl)-1,2,4-oxadiazole (Compound 2) can be identified by measuring their potentiating effect to fluorescence changes in intracellular calcium using a fluorimetric plate reader. The potentiating effect of an α4β2 modulator on α4β2 receptor can also be illustrated by concentration responses to α4β2 agonists, for example 5-[(2R)-azetidin-2-ylmethoxy]-2-chloropyridine (Compound A) and (3R)-1-pyridin-3-ylpyrrolidin-3-amine (Compound B), in presence of a fixed concentration of PAM. […] In addition to compound A and B, other known nicotinic agonists can be left-shifted in presence of α4β2 PAM such as […]. […] This could lead to preferential effects of the agonist at the desired subtype, viz., α4β2, without effects at other nicotinic receptor subtypes and thus enhancing in vivo selectivity of the agonist.
The activity (allosteric effects—potentiation of fluorescence responses) ranges are defined as follows; “a” denotes as activity range from 200-400%, “b” denotes an activity range from 150-200%, “c” denotes an activity range from 120-150% and “d” denotes an activity range 90-120%. […]

[2] = test system: nerve injury induced mechanical allodynia; assay: Chung model of neuropathic pain (L5-L6 spinal nerve ligation, tactile allodynia, von Frey); assay type: in vivo; details: rat
Experimental: Animals: Male Sprague-Dawley rats (Charles River, Wilmington, Mass.) weighing 120-150 grams at time of surgery were utilized. These animals were group housed in AAALAC approved facilities at Abbott Laboratories in a temperature-regulated environment with lights on between 0700 and 2000 hours. Food and water was available ad libitum except during testing. All animal handling and experimental protocols were approved by an institutional animal care and use committee (IACUC). All experiments were performed during the light cycle.
Chemicals: 5-[(2R)-Azetidin-2-ylmethoxy]-2-chloropyridine (Compound A, 1-100 nmol/kg) and 3-(3-pyridin-3-yl)-1,2,4-oxadiazol-5-yl)benzonitrile (α4β2 PAM Compound 1, 1-35 μmol/kg, i.p.) was used. Compound A and D was prepared in saline and injected in solution in a volume of 2 ml/kg body weight 30 minutes before behavioral evaluation. Compound 1,3-(3-(pyridin-3-yl)-1,2,4-oxadiazol-5-yl)benzonitrile, was prepared in 30% hydroxybetacyclodextrin and injected in solution in a volume of 4 ml/kg body weight immediately before Compound A. For studies with Compound D, the doses tested ranged from 0.3-30 μmol/kg i.p.
Experimental Procedure: To produce neuropathic pain, tight ligation of the L5-L6 spinal nerves was performed. As previously described in detail by Kim and Chung (Kim S H and Chung J M (1992), Pain 50: 355), following sterilization procedures, a 1.5 cm incision was made dorsal to the lumbosacral plexus. The paraspinal muscles (left side) were separated from the spinous processes, the L5 and L6 spinal nerves isolated, and tightly ligated with 3-0 silk thread. Following hemostasis, the wound was sutured and coated with antibiotic ointment. The rats were allowed to recover and then placed in a cage with soft bedding for 7-14 days before behavioral testing for mechanical allodynia.
Tactile allodynia was measured using calibrated (force; g) von Frey filaments (Stoelting, Wood Dale, Ill.). Briefly, rats were placed into individual plexiglass containers and allowed to acclimate for 15-20 minutes before testing. Withdrawal threshold was determined by increasing and decreasing stimulus intensity and estimated using a Dixon non-parametric test (Chaplan et al., 1994; Chaplan S R, Bach F W, Pogrel J W, Chung J M and Yaksh T L (1994) J Neurosci Methods 53:55-63). Only rats with threshold scores ≦4.5 g were considered allodynic and utilized in further testing. A percent of maximal possible effect (% M.P.E.) of the tested compounds was calculated according to the formula: ([post-drug threshold]−[baseline threshold])/([maximum threshold]−[baseline threshold])×100%, where maximum threshold was equal to 15 g.
Statistical analysis: Analysis of the in vivo data was carried out using analysis of variance. Where appropriate, Bonferroni's Multiple Comparison Test was used for post-hoc analysis. The level of significance was set at p less than 0.05. Data are presented as mean ±S.E.M.

SMILES	Activity (allosteric effects—potentiation of fluorescence responses) [1]	also measured
Fc1ccc(-c2nc(-c3cncnc3)no2)cc1F [Example 101, 5-(3,4-difluorophenyl)-3-(pyrimidin-5-yl)-1,2,4-oxadiazole tosylate]	a (“a” denotes as activity range from 200-400%)	
O=[N+]([O-])c1cccc(-c2nc(-c3cccnc3)no2)c1 [Example 40, 5-(3-nitrophenyl)-3-(pyridin-3-yl)-1,2,4-oxadiazole]	a (“a” denotes as activity range from 200-400%)	
NS(=O)(=O)c1cccc(-c2nc(-c3cccnc3)no2)c1 [Example 35, 3-(3-(pyridin-3-yl)-1,2,4-oxadiazol-5-yl)benzenesulfonamide]	a (“a” denotes as activity range from 200-400%)	
Brc1cncc(-c2nc(-c3cccnc3)no2)c1 [Example 5, 5-(5-bromopyridin-3-yl)-3-(pyridin-3-yl)-1,2,4-oxadiazole]	c (“c” denotes an activity range from 120-150%)	
O=c1[nH]c2cc(-c3noc(-c4cccnc4)n3)ccc2o1 [Example 132, 5-(5-(pyridin-3-yl)-1,2,4-oxadiazol-3-yl)benzo[d]oxazol-2(3H)-one]	a (“a” denotes as activity range from 200-400%)	
N#Cc1cccc(-c2noc(-c3ccc(Cl)nc3)n2)c1 [Example 76, 3-(5-(6-chloropyridin-3-yl)-1,2,4-oxadiazol-3-yl)benzonitrile]	b (“b” denotes an activity range from 150-200%)	
Oc1cncc(-c2nc(-c3cccnc3)no2)c1 [Example 9, 5-(3-(pyridin-3-yl)-1,2,4-oxadiazol-5-yl)pyridin-3-ol]	d (“d” denotes an activity range 90-120%)	
O=c1[nH]c2cc(-c3nc(-c4cccnc4)no3)ccc2o1 [Example 125, 5-(3-(pyridin-3-yl)-1,2,4-oxadiazol-5-yl)benzo[d]oxazol-2(3H)-one]	a (“a” denotes as activity range from 200-400%)	
Fc1ccc(-c2nc(-c3ccnnc3)no2)cc1F [Example 83, 5-(3,4-Difluorophenyl)-3-(pyridazin-4-yl)-1,2,4-oxadiazole hydrochloride]	a (“a” denotes as activity range from 200-400%)	
CC(=O)c1cccc(-c2nc(-c3cccnc3)no2)c1 [Example 68, 1-(3-(3-(pyridin-3-yl)-1,2,4-oxadiazol-5-yl)phenyl)ethanone]	b (“b” denotes an activity range from 150-200%)	
c1cnc2cc3c(cc2n1)[C@@H]1CNC[C@H]3C1 [varenicline, reference compound]		potency (EC50 values) for activation of α4β2 nAChRs in the presence vs absence of PAM [1]: increase in the presence of the positive allosteric modulator
CN[C@@H](C)C/C=C/c1cncc(OC(C)C)c1 [ispronicline, reference compound]		potency (EC50 values) for activation of α4β2 nAChRs in the presence vs absence of PAM [1]: increase in the presence of the positive allosteric modulator
N#Cc1cccc(-c2noc(-c3cccnc3)n2)c1 [Example 3, 3-(5-(pyridin-3-yl)-1,2,4-oxadiazol-3-yl)benzonitrile]	a (“a” denotes as activity range from 200-400%)	
N#Cc1cccc(-c2noc(-c3ccc(F)nc3)n2)c1 [Example 4, 3-(5-(6-fluoropyridin-3-yl)-1,2,4-oxadiazol-3-yl)benzonitrile]	b (“b” denotes an activity range from 150-200%)	
Fc1cccc(-c2nc(-c3cccnc3)no2)c1F [Example 11, 5-(2,3-difluorophenyl)-3-(pyridin-3-yl)-1,2,4-oxadiazole]	a (“a” denotes as activity range from 200-400%)	
Clc1ccc(OC[C@H]2CCN2)cn1 [Compound A, 5-[(2R)-azetidin-2-ylmethoxy]-2-chloropyridine]		efficacy in neuropathic pain ([2]; 1 nmol/kg, alone): ineffective; mechanical paw withdrawal threshold (PWT) ([2]; 0.03 μmol/kg, i.p., alone): 5.6 ± 0.3 g; efficacy in neuropathic pain ([2]; Compound A 1 nmol/kg combined with varying doses of PAM Compound 1): dose-dependent increase in efficacy
N#Cc1ccc(-c2nc(-c3cccnc3)no2)cc1 [Example 19, 4-(3-(pyridin-3-yl)-1,2,4-oxadiazol-5-yl)benzonitrile]	b (“b” denotes an activity range from 150-200%)	
Fc1ccc(-c2nc(-c3cccnc3)no2)cc1F [Example 10, 5-(3,4-difluorophenyl)-3-(pyridin-3-yl)-1,2,4-oxadiazole]	a (“a” denotes as activity range from 200-400%)	
c1cncc(-c2noc(-c3cccnc3)n2)c1 [Example 2, 3,5-di(pyridin-3-yl)-1,2,4-oxadiazole]	a (“a” denotes as activity range from 200-400%)	
O=c1ccc(-c2noc(-c3cccnc3)n2)c[nH]1 [Example 55, 5-(5-(pyridin-3-yl)-1,2,4-oxadiazol-3-yl)pyridin-2(1H)-one]	c (“c” denotes an activity range from 120-150%)	
Cc1ccc(-c2noc(-c3cccc(C#N)c3)n2)cn1 [Example 7, 3-(3-(6-methylpyridin-3-yl)-1,2,4-oxadiazol-5-yl)benzonitrile]	b (“b” denotes an activity range from 150-200%)	
Clc1cc(-c2noc(-c3cccnc3)n2)ccn1 [Example 42, 3-(2-chloropyridin-4-yl)-5-(pyridin-3-yl)-1,2,4-oxadiazole]	c (“c” denotes an activity range from 120-150%)	
CS(=O)(=O)c1cccc(-c2nc(-c3cccnc3)no2)c1 [Example 41, 5-(3-(methylsulfonyl)phenyl)-3-(pyridin-3-yl)-1,2,4-oxadiazole]	c (“c” denotes an activity range from 120-150%)	
